Several values for one entry are separate records, joined by “and”; a condition that tells them apart may be missing. Equal values may be shown once. Read-outs that look alike come from different tables or passages of the source. Square brackets hold non-standard residues; d marks the D form. Ends that are not written are not given here. βAla = NCCC(=O)O
Assays:
[1] = 25° C.; previously reported studies; cited from earlier work
[2] = NaCl; 25° C.; previously reported studies; cited from earlier work
[3] = Heparin-sepharose affinity chromatography (NaCl elution); assay type: binding; details: 25° C.
Procedure: (§1) Heparin-sepharose affinity liquid chromatography was performed on an ÄKTA Explorer FPLC equipped with a HiTrap Heparin HP column (5 ml, ˜10 mg heparin/ml gel, Amersham Biosciences Corp, Piscataway, N.J.). Surface Plasmon Resonance (SPR). SPR sensorgrams were recorded on a BiaCore 3000 instrument (Biacore Inc, Piscataway, N.J.), employing a high-capacity LMWH surface created on a commercially available streptavidin-coated chip via treatment with biotinylated LMWH.
For heparin affinity chromatography experiments, HBPs were loaded onto a heparin-sepharose column, and then eluted with buffer of increasing NaCl concentration. The concentration of NaCl required for peptide elution is used as an indication of the affinity of the peptide for heparin. The elution of the peptides from the heparin-sepharose column required a salt concentration of 962±10 mM for the PF4ZIP peptide.

[4] = Surface plasmon resonance on LMWH-modified streptavidin chip; assay type: binding
Procedure: as §1
In SPR experiments, the interaction of the peptides with a LMWH-modified SA chip surface was determined under conditions described in the experimental section. […] In addition, no mass transport limitation or linked reactions were indicated. […] These faster association kinetics, relative to those reported for the ATIII and HIP (Table 2) (see also N. Yamaguchi, B. S. Chae, L. Zhang, K. L. Kiick, E. M. Furst, Rheological characterization of polysaccharide-poly (ethylene glycol) star copolymer hydrogels, Biomacromolecules 6 (4) (2005) 1931-1940) are the primary cause of the lower measured KD values for PF4ZIP-LMWH binding, and the trend of the dissociation constants is consistent with the chromatography results. […] Nevertheless, the equilibrium constants of dissociation determined via both methods are substantially lower than the concentrations employed during hydrogel formation experiments (see below).
The heparin-binding kinetics between LMWH and PF4ZIP were monitored via SPR at several temperatures between 5° C. and 37° C., to determine potential changes in binding kinetics that might alter hydrogel properties under physiological conditions.

| Substance | Kd [1] [µM] | ka [1] | kd [1] | Salt required for elution from heparin column [2] [mM] | Salt required for elution from heparin column [3] [mM] | ka ([4]; 5 ° C.) | kd ([4]; 5 ° C.) | ka ([4]; 15 ° C.) | kd ([4]; 15 ° C.) | Kd ([4]; 25° C.) | ka ([4]; 25° C.) | kd ([4]; 25° C.) | ka ([4]; 25 ° C. (Table 3)) | kd ([4]; 25 ° C. (Table 3)) | ka ([4]; 37 ° C.) | kd ([4]; 37 ° C.) |
| --- | --- | --- | --- | --- | --- | --- | --- | --- | --- | --- | --- | --- | --- | --- | --- | --- |
| CRPKAKAKAKAKDQTK [HIP] | 4.2 ± 0.3 | 1.10 ± 0.08 × 10^3 M^−1s^−1 | 4.64 ± 0.02 × 10^−3 s^−1 | 687 ± 1 |  |  |  |  |  |  |  |  |  |  |  |  |
| CKbAFAKLAARLYRKA (CK[βAla]FAKLAARLYRKA-NH2; N-terminus assumed; SMILES CC(C)C[C@H](NC(=O)[C@H](CCCCN)NC(=O)[C@H](C)NC(=O)[C@H](Cc1ccccc1)NC(=O)CCNC(=O)[C@H](CCCCN)NC(=O)[C@@H](N)CS)C(=O)N[C@@H](C)C(=O)N[C@@H](C)C(=O)N[C@@H](CCCNC(=N)N)C(=O)N[C@@H](CC(C)C)C(=O)N[C@@H](Cc1ccc(O)cc1)C(=O)N[C@@H](CCCNC(=N)N)C(=O)N[C@@H](CCCCN)C(=O)N[C@@H](C)C(N)=O; listed as Homo sapiens) [ATIII] | 12.9 ± 1.3 | 1.56 ± 0.06 × 10^2 M^−1s^−1 | 2.00 ± 0.3 × 10^−3 s^−1 | 594 ± 2 |  |  |  |  |  |  |  |  |  |  |  |  |
| CGGRMKQLEDKVKKLLKKNYHLENEVARLKKLVG [PF4ZIP] |  |  |  |  | 962 ± 10 | 1.56 ± 0.01 × 10^5 M^−1s^−1 | 3.74 ± 0.17 × 10^−3 s^−1 | 1.90 ± 0.04 × 10^5 M^−1s^−1 | 1.67 ± 0.03 × 10^−3 s^−1 | ~0.0115 µM and 0.0115 µM | 2.24±0.05×10^5 M^−1s^−1 | 2.56±0.10×10^−3 s^−1 | 2.24 ± 0.05 × 10^5 M^−1s^−1 | 2.56 ± 0.10 × 10^−3 s^−1 | 5.11 ± 0.02 × 10^5 M^−1s^−1 | 2.44 ± 0.08 × 10^−3 s^−1 |

Reference: patent publication US8367639B2, “Hydrogels with covalent and noncovalent crosslinks” (University of Delaware, priority 2005, dated 2013)
